We go through one compound from patent US20230201174A1, “COMBINATION OF FINERENONE AND A SGLT2 INHIBITOR FOR THE TREATMENT AND/OR PREVENTION OF CARDIOVASCULAR AND/OR RENAL DISEASES” (BAYER AKTIENGESELLSCHAFT, priority 2020, published 2023).

For assay [1] the following is noted: tended to increase on day 1 after administration; cited from earlier work.
Assay [2] has as its system Wistar rats with activated renin-angiotensin-aldosterone system. Put plainly: In vivo assay for detecting natriuretic activity in conscious rats with activated RAAS. Details: species or system rat. The note with it: for Urinary Glucose concentration / Urinary K+ concentration / Urinary Na+ concentration / Urinary Volume/ body weight: Table 4, 24 h urine, mean ± SEM. The method, then: Wistar rats (ca. 250-500 g body weight) were kept with free access to feed (Altromin) and drinking water. […] This sodium-reduced feed causes an activation of the RAAS in the animals during the 3 days run-in phase and therefore mimics a neuroendocrine activation which is characteristic for cardiorenal diseases. […] At the start of the test, the substance to be tested was administered by means of gavage in a volume of 2-3 ml/kg of body weight of a suitable solvent PEG400). Control animals received only solvent (‘S’ or solvent in table 2 below). Controls and substance tests were carried out in parallel on the same day. Control groups and substance-dose groups each consisted of 6 to 10 animals. During the test, the urine excreted by the animals was continuously collected in a receiver on the base of the cage.
In this comparison, eight different administrations were performed (cf. groups A to H):
Group A received the solvent (PEG400) only. This group serves as control group.
Groups B, C and D received three increasing dosages of empagliflozin (SGLT2 inhibitor) only. It serves to detect the effects of the monotherapy with SGLT2 inhibitor.
Group E received a finerenone only. It serves to detect the effect of the monotherapy with finerenone.
Groups F, G and H received finerenone and the three doses of SGLT2 inhibitor in combination, respectively. It serves to detect the effect of the combined therapy with finerenone and empagliflozin (SGLT2 inhibitor) (combination according to the invention).
After the treatment, the urinary volume, urinary glucose, urinary sodium and potassium concentrations were measured.

Setting [3] is: Table 4 study, monotherapy 10 mg/kg.
[4] abbreviates: Table 4 study, monotherapy: canagliflozin 1 and 3 mg/kg, finerenone 1 mg/kg.

Molecules are shown by their SMILES.

As to `Cc1ccc([C@@H]2O[C@H](CO)[C@@H](O)[C@H](O)[C@H]2O)cc1Cc1ccc(-c2ccc(F)cc2)s1` [canagliflozin, (2S,3R,4R,5S,6R)-2-(3-{[5-(4-fluorophenyl)thiophen-2-yl]methyl}-4-methylphenyl)-6-(hydroxymethyl)oxane-3,4,5-triol], in assay [1], the “urinary Na+ excretion, in words” value was “returned to baseline from day 2 to 5”. Moreover, in assay [2] (monotherapy 1 mg/kg oral), the “Urinary Glucose concentration” value was found to be 2.76 ± 0.36 mmol, the “Urinary K+ concentration” value was found to be 1.86 ± 0.11 mmol, the “Urinary Na+ concentration” value is 0.15 ± 0.03 mmol and the “Urinary Volume/ body weight” value was found to be 0.03108 ± 0.00317 L/kg. In addition, in assay [2] (monotherapy 3 mg/kg oral), the “Urinary Glucose concentration” value turned out to be 6.94 ± 0.44 mmol, the “Urinary K+ concentration” value is listed as 2.40 ± 0.17 mmol, the “Urinary Na+ concentration” value is listed as 0.21 ± 0.05 mmol and the “Urinary Volume/ body weight” value worked out at 0.04049 ± 0.00243 L/kg. In addition, in assay [2] (monotherapy 10 mg/kg oral), the “Urinary Glucose concentration” value was 9.99 ± 0.46 mmol, the “Urinary K+ concentration” value is listed as 2.36 ± 0.15 mmol, the “Urinary Na+ concentration” value was determined as 0.41 ± 0.08 mmol and the “Urinary Volume/ body weight” value came out at 0.05583 ± 0.00352 L/kg. In addition, in assay [2] (setting [3]), the “influence on urinary sodium, in words” value is on record as “increase” and the “influence on urinary volume, in words” value is listed as “increase”. In addition, in assay [2] (setting [4]), the “influence on urinary potassium, in words” value is given as “no influence”; the “influence on urinary sodium, in words” value is on record as “no influence”; the “influence on urinary volume, in words” value is “no influence”. Further, in assay [2] (Table 4 study, monotherapy: canagliflozin all doses (1, 3, 10 mg/kg), finerenone 1 mg/kg), the “influence on urinary glucose, in words” value is “strong increase”.
